Test results published in US11951094B2, “TLR2 modulator compounds, pharmaceutical compositions and uses thereof” (Axial Therapeutics, Inc., priority 2020, dated 2024).
Structures can show the parent of a compound that is named as a salt.

Molecular target: TLR2 (Homo sapiens, UniProt O60603)
Assay: TLR2 agonist screening assay, HEK-Blue TLR2 reporter cell line (NF-kB-driven SEAP, absorbance at 600 nm)
Assay type: cell-based
Parameters: host or cells: HEK-293 (HEK-Blue TLR2 reporter cell line)
Conditions: HEK-Blue TLR2 reporter cells, agonist mode
Summary of the method: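 HEK-293 cells expressing TLR2 with NF-kB-driven SEAP were plated at 40,000 per well. After 16-24 h, they were treated overnight with diluted agonists in detection medium (1% DMSO final). Absorbance at 600 nm was read, and EC50 values were fitted.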

TLR2, sequence (O60603 21-784): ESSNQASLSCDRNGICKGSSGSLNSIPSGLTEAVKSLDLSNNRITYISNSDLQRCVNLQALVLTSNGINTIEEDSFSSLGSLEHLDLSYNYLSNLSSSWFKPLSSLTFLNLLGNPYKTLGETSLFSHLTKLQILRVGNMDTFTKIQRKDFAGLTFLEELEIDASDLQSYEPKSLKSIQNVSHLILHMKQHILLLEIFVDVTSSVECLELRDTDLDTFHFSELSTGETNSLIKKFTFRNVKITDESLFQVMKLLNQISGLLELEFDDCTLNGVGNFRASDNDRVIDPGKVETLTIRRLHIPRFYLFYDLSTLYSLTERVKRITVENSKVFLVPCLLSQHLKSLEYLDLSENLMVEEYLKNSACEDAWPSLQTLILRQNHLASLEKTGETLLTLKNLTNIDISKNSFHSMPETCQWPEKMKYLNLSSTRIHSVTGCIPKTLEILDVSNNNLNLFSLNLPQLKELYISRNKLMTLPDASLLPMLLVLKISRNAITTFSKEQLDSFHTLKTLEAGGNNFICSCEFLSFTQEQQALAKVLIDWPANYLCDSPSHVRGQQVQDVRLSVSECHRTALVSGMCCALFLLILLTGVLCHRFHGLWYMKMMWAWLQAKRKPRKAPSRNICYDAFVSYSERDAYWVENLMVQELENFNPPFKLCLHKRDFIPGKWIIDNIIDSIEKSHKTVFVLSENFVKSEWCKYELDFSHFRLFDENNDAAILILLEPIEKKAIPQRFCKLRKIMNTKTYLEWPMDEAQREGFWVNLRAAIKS

Row | EC50 (average of all runs (Table 4)) [nM] | EC50 (average of all runs (Table 3)) [nM] | SMILES
1 | 351 to 1000 |  | CCCCCCCCCC(=O)N[C@@H](CNCc1ccc(C(=O)N2C[C@@H](C(=O)N[C@H]3C[C@@H]3c3ccccc3)[C@H](C(=O)N[C@H]3C[C@@H]3c3ccccc3)C2)cc1)C(=O)NCCCCCC [Compound 266, (3S,4S)-1-(4-((((S)-2-decanamido-3-(hexylamino)-3-oxopropyl)amino)methyl)benzoyl)-N3,N4-bis((1S,2R)-2-phenylcyclopropyl) pyrrolidine-3,4-dicarboxamide]
2 | 351 to 1000 |  | CCCCCCCCCCCCCCNC(=O)[C@@H]1CN(C(=O)c2ccc(C(=O)N3C[C@@H](C(=O)N[C@H]4C[C@@H]4c4ccccc4)[C@H](C(=O)N[C@H]4C[C@@H]4c4ccccc4)C3)cc2)C[C@@H]1O (single isomer, unassigned) [Compound 103, (3S,4S)-1-(4-((3R*,4R*)-3-hydroxy-4-(tetradecylcarbamoyl)pyrrolidine-1-carbonyl)benzoyl)-N3,N4-bis((1S,2R)-2-phenylcyclopropyl) pyrrolidine-3,4-dicarboxamide]
3 | 351 to 1000 |  | CCCCCCCCCCCCCCNC(=O)[C@H]1CN(C(=O)c2ccc(C(=O)N3C[C@@H](C(=O)N[C@H]4C[C@@H]4c4ccccc4)[C@H](C(=O)N[C@H]4C[C@@H]4c4ccccc4)C3)cc2)CCN1C(C)=O [Compound 163, (3S,4S)-1-(4-((R)-4-acetyl-3-(tetradecylcarbamoyl)piperazine-1-carbonyl)benzoyl)-N3,N4-bis((1S,2R)-2-phenylcyclopropyl)pyrrolidine-3,4-dicarboxamide]
4 | > 1000 |  | CCCCCCCCCCCCCCNC(=O)[C@@H]1CN(C(=O)c2ccc(C(=O)N3C[C@@H](C(=O)N[C@H]4C[C@@H]4c4ccccc4)[C@H](C(=O)N[C@H]4C[C@@H]4c4ccccc4)C3)cc2)CCN1C(=O)CC(C)C [Compound 252, (3S,4S)-1-(4-((S)-4-(3-methylbutanoyl)-3-(tetradecylcarbamoyl)piperazine-1-carbonyl)benzoyl)-N3,N4-bis((1S,2R)-2-phenylcyclopropyl)pyrrolidine-3,4-dicarboxamide]
5 | > 1000 |  | CCCCCCCCCCCCCCNC(=O)[C@@H]1CN(S(=O)(=O)c2ccc(C(=O)N3C[C@@H](C(=O)N[C@H]4C[C@@H]4c4ccccc4)[C@H](C(=O)N[C@H]4C[C@@H]4c4ccccc4)C3)cc2)CCN1C(C)=O [Compound 196, (3S,4S)-1-(4-(((S)-4-acetyl-3-(tetradecylcarbamoyl)piperazin-1-yl)sulfonyl)benzoyl)-N3,N4-bis((1S,2R)-2-phenylcyclopropyl)pyrrolidine-3,4-dicarboxamide]
6 |  | 351 to 1000 | CCCCCCNC(=O)C1CN(C(=O)c2ccc(C(=O)N3C[C@@H](C(=O)N[C@H]4C[C@@H]4c4ccccc4)[C@H](C(=O)N[C@H]4C[C@@H]4c4ccccc4)C3)cc2)CCN1 (stereo partly drawn) [Compound 042, (3S,4S)-1-(4-(3-(hexylcarbamoyl)piperazine-1-carbonyl)benzoyl)-N3,N4-bis((1S,2R)-2-phenylcyclopropyl)pyrrolidine-3,4-dicarboxamide formate]
7 |  | 351 to 1000 | CCCCCCCO[C@H]1CN(C(=O)c2ccc(C(=O)N3C[C@@H](C(=O)N[C@H]4C[C@@H]4c4ccccc4)[C@H](C(=O)N[C@H]4C[C@@H]4c4ccccc4)C3)cc2)C[C@H]1C(=O)NCCCCCC (single isomer, unassigned) [Compound 073, (3S,4S)-1-(4-((3R*,4R*)-3-(heptyloxy)-4-(hexylcarbamoyl)pyrrolidine-1-carbonyl)benzoyl)-N3,N4-bis((1S,2R)-2-phenylcyclopropyl)pyrrolidine-3,4-dicarboxamide]
8 | 351 to 1000 |  | CCCCCCCO[C@@H]1CN(C(=O)c2ccc(C(=O)N3C[C@@H](C(=O)N[C@H]4C[C@@H]4c4ccccc4)[C@H](C(=O)N[C@H]4C[C@@H]4c4ccccc4)C3)cc2)C[C@@H]1C(=O)NCCCCCC (relative stereo) [Compound 116, (3S,4S)-1-(4-((3S*,4S*)-3-(heptyloxy)-4-(hexylcarbamoyl)pyrrolidine-1-carbonyl)benzoyl)-N3,N4-bis((1S,2R)-2-phenylcyclopropyl)pyrrolidine-3,4-dicarboxamide]
9 | 351 to 1000 |  | O=C(N[C@H]1C[C@@H]1c1ccccc1)[C@@H]1CN(C(=O)c2ccc(C(=O)N3C[C@@H](C(=O)N[C@@H]4C[C@H]4c4cccnc4)[C@H](C(=O)N[C@@H]4C[C@H]4c4cccnc4)C3)cc2)C[C@H]1C(=O)N[C@H]1C[C@@H]1c1ccccc1 (single isomer, unassigned) [Compound 095, (3S,4S)-1-(4-((3S,4S)-3,4-bis(((1S*,2R*)-2-(pyridin-3-yl)cyclopropyl)carbamoyl)pyrrolidine-1-carbonyl)benzoyl)-N3,N4-bis((1S,2R)-2-phenylcyclopropyl) pyrrolidine-3,4-dicarboxamide]

Further lines, the molecule ahead of its results:

Row | SMILES | EC50 (average of all runs (Table 4)) [nM] | EC50 (average of all runs (Table 3)) [nM]
10 | CCCCCCCCCC(=O)N[C@@H](CNc1nc2ccc(C(=O)N3C[C@@H](C(=O)N[C@H]4C[C@@H]4c4ccccc4)[C@H](C(=O)N[C@H]4C[C@@H]4c4ccccc4)C3)cc2o1)C(=O)NCCCCCC [Compound 261, (3S,4S)-1-(2-(((S)-2-decanamido-3-(hexylamino)-3-oxopropyl)amino)benzo[d]oxazole-6-carbonyl)-N3,N4-bis((1S,2R)-2-phenylcyclopropyl)pyrrolidine-3,4-dicarboxamide] | > 1000 | 
11 | CCCCCCNC(=O)[C@H](CNC(=O)c1ccc(C(=O)N2C[C@@H](C(=O)N[C@H]3C[C@@H]3c3ccccc3)[C@H](C(=O)N[C@H]3C[C@@H]3c3ccccc3)C2)cc1)NC(=O)NCc1ccc(F)cc1 [Compound 186, (3S,4S)-1-(4-(((S)-2-(3-(4-fluorobenzyl)ureido)-3-(hexylamino)-3-oxopropyl)carbamoyl)benzoyl)-N^3,N^4-bis((1S,2R)-2-phenylcyclopropyl) pyrrolidine-3,4-dicarboxamide] | 0.1 to 50 | 
12 | CCCCCCNC(=O)[C@H]1CN(C(=O)c2ccc(C(=O)N3C[C@@H](C(=O)N[C@H]4C[C@@H]4c4ccccc4)[C@H](C(=O)N[C@H]4C[C@@H]4c4ccccc4)C3)cc2)C[C@@H]1C(=O)NCCCCCC [Compound 029] |  | 51 to 350
13 | O=C(N[C@H]1C[C@@H]1c1ccccc1)[C@@H]1CN(C(=O)c2cnc(C(=O)N3C[C@@H](C(=O)N[C@H]4C[C@@H]4c4ccccc4)[C@H](C(=O)N[C@H]4C[C@@H]4c4ccccc4)C3)nc2)C[C@H]1C(=O)N[C@H]1C[C@@H]1c1ccccc1 [Compound 071, (3S,3'S,4S,4'S)-1,1′-(pyrimidine-2,5-dicarbonyl)bis(N3,N4-bis((1S,2R)-2-phenylcyclopropyl)pyrrolidine-3,4-dicarboxamide)] |  | 51 to 350
14 | CCCCCCNC(=O)[C@@H](CCNC(=O)c1ccc(C(=O)N2C[C@@H](C(=O)N[C@H]3C[C@@H]3c3ccccc3)[C@H](C(=O)N[C@H]3C[C@@H]3c3ccccc3)C2)cc1)NC(=O)CCCCCC [Compound 120, (3S,4S)-1-(4-(((R)-3-heptanamido-4-(hexylamino)-4-oxobutyl)carbamoyl)benzoyl)-N3,N4-bis((1S,2R)-2-phenylcyclopropyl)pyrrolidine-3,4-dicarboxamide] | > 1000 | 
15 | CCCCCCCCCC(=O)N1CCN(C(=O)c2ccc(C(=O)N3C[C@@H](C(=O)N[C@H]4C[C@@H]4c4ccccc4)[C@H](C(=O)N[C@H]4C[C@@H]4c4ccccc4)C3)cc2)CC1C(=O)NCCCCCC (stereo partly drawn) [Compound 064, (3S,4S)-1-(4-(4-decanoyl-3-(hexylcarbamoyl)piperazine-1-carbonyl)benzoyl)-N3,N4-bis((1S,2R)-2-phenylcyclopropyl)pyrrolidine-3,4-dicarboxamide] |  | 0.1 to 50
16 | CCCCCCCCCCCCCCNC(=O)[C@H]1CCN(C(=O)c2ccc(C(=O)N3C[C@@H](C(=O)N[C@H]4C[C@@H]4c4ccccc4)[C@H](C(=O)N[C@H]4C[C@@H]4c4ccccc4)C3)cc2)C1 [Compound 004] |  | 0.1 to 50
17 | CCCCCCNC(=O)CC[C@@H](NC(=O)c1ccc(C(=O)N2C[C@@H](C(=O)N[C@H]3C[C@@H]3c3ccccc3)[C@H](C(=O)N[C@H]3C[C@@H]3c3ccccc3)C2)cc1)C(=O)NCCCCCC [Compound 099, (3S,4S)-1-(4-(((R)-1,5-bis(hexylamino)-1,5-dioxopentan-2-yl)carbamoyl)benzoyl)-N3,N4-bis((1S,2R)-2-phenylcyclopropyl)pyrrolidine-3,4-dicarboxamide] | > 1000 | 
18 | CCCCCCCO[C@@H]1CN(C(=O)c2ccc(C(=O)N3C[C@@H](C(=O)N[C@H]4C[C@@H]4c4ccccc4)[C@H](C(=O)N[C@H]4C[C@@H]4c4ccccc4)C3)cc2)C[C@H]1C(=O)NCCCCCC (single isomer, unassigned) [Compound 114, (3S,4S)-1-(4-((3S*,4R*)-3-(heptyloxy)-4-(hexylcarbamoyl)pyrrolidine-1-carbonyl)benzoyl)-N3,N4-bis((1S,2R)-2-phenylcyclopropyl)pyrrolidine-3,4-dicarboxamide] | 51 to 350 | 
19 | CCCCCCCCCCCCCCC(=O)NC1CCN(S(=O)(=O)c2cccc(C(=O)N3C[C@@H](C(=O)N[C@H]4C[C@@H]4c4ccccc4)[C@H](C(=O)N[C@H]4C[C@@H]4c4ccccc4)C3)c2)CC1 [Compound 194, (3S,4S)-1-(3-((4-pentadecanamidopiperidin-1-yl)sulfonyl)benzoyl)-N3,N4-bis((1S,2R)-2-phenylcyclopropyl)pyrrolidine-3,4-dicarboxamide] | > 1000 | 
20 | CCCCCCCCCCCCCCNC(=O)[C@H]1CN(C(c2ccc(C(=O)N3C[C@@H](C(=O)N[C@H]4C[C@@H]4c4ccccc4)[C@H](C(=O)N[C@H]4C[C@@H]4c4ccccc4)C3)cc2)C(F)(F)F)CCN1C (stereo partly drawn) [Compound 132, (3S,4S)—N3,N4-bis((1S,2R)-2-phenylcyclopropyl)-1-(4-(2,2,2-trifluoro-1-((R)-4-methyl-3-(tetradecylcarbamoyl)piperazin-1-yl)ethyl)benzoyl)pyrrolidine-3,4-dicarboxamide] | 51 to 350 | 
21 | CCCCCCCCCCCCCCNC(=O)C1CCN(C(=O)c2ccc(C(=O)N3C[C@@H](C(=O)N[C@H]4C[C@@H]4c4ccccc4)[C@H](C(=O)N[C@H]4C[C@@H]4c4ccccc4)C3)cc2)CC1 [Compound 010] |  | > 1000
